In US9802880B2, “Cannabigerol derivatives” (VIVACELL BIOTECHNOLOGY ESPAÑA S.L., priority 2014, dated 2017):

How the values were obtained:
N2a cells = assay: Neuroprotection assay, glutamate-induced excitotoxicity in N2a cells; assay type: cell-based; settings: 1 h pre-incubation, then 5 mM glutamate 24 h, FIG. 5
Description: N2a cells were pre-incubated for 1 h with compounds (II) to (V) and (XII) at the indicated concentrations. Then, cells were treated for 24 h with 5 mM glutamate to induce excitotoxicity, or cytotoxicity in neuronal cells induced by neurotransmitters. Cell viability was quantified by MTT assay. […] Control was set as 100% and data were referred to that value.
Cultured N2A cells were pre-incubated with the compounds II, III, IV, V and XII at the indicated concentrations for 1 h and then treated with 5 mM glutamate to induce excitotoxicity during 24 h (FIG. 5). Cytotoxicity was determined by the MTT method as described in example 3. Results are shown as mean±S.D. from at least three independent experiments, and expressed as percentage of cell viability against the control sample (−). Control was set as 100% and data were referred to that value.

PPARg [1] = assay: PPARg transactivation assay in HEK-293 cells (GAL4-PPARγ / GAL4-luc); settings: for increase of PPARg activity: 1 μM concentration; for PPARg activation (fold) compared with CBG-Q: HEK-293 cells, 6 h treatment, FIG. 1; for PPARg transactivation (luciferase activity, fold induction over untreated cells): increasing doses, 6 h
PPARg [2] = assay: PPARg transactivation assay in human dermal primary fibroblasts; assay type: cell-based; settings: 6 h treatment, FIG. 2
From the text: FIG. 2. PPARg Transactivation Assays in Human Dermal Primary Fibroblasts.

3NP-lesioned mice = assay: Huntington's disease 3NP model, behavioral score; assay type: in vivo, C57BL/6 mice; settings: 10 mg/kg i.p., four injections, FIG. 9
Description: Mice were subjected to behavioral tests for determining their neurological status after the treatment with compounds I (10 mg/kg) (A), III (10 mg/kg) (B) and XII (10 mg/kg) (C). Hind limb clasping, Locomotor activity, Hind limb dystonia and Truncal Dystonia were rated from 0 to 2 based on severity: a score of 0 typically indicates normal function and 2 seriously affected. Values are expressed as means±SEM for 8 animals per group.
(§1) Lesions of the striatum were induced with 3-NP in adult (16 week old; 30 g) male C57BL/6 mice (Harlan Ibérica, Barcelona, Spain). To this end, mice were subjected to seven intraperitoneal (i.p.) injections of 3NP (one injection each 12 hours) at a dose of 50 mg/kg (prepared in phosphate-buffered saline) for 3 days. These animals and their respective non-lesioned controls were used for pharmacological studies with compounds CBG-Q (compound I) and with compounds III and XII (FIG. 9). At least 6-8 animals were used per experimental group. Treatments consisted of four i.p. injections of the compounds at the indicated doses (one injection each 24 hours), or vehicle (DMSO 0.2%, BSA 5% in PBS) 30 min before the injections of 3NP. All animals were euthanized 12 hours after the last 3NP injection. Once euthanized, animals were dissected and their brains were rapidly removed. The right hemisphere was used to dissect the striatum, which was quickly frozen in RNAlater (Sigma-Aldrich, Germany) to analyzed inflammatory markers were by Real Time PCR. The left hemisphere was fixed in fresh 4% paraformaldehyde (in 0.1M phosphate buffered-saline) for 48 hours at 4° C. and embedded in paraffin wax for histological analysis. Mice were subjected to behavioral tests for determining their neurological status. We evaluated the general locomotor activity, the hindlimb clasping and dystonia, and the truncal dystonia. All behavioral tests were conducted prior to drug injections to avoid acute effects of the compounds under investigation.

EAE mice = assay: Experimental autoimmune encephalomyelitis (EAE), clinical score; assay type: in vivo, C57BL/6 mice; settings: 5 mg/kg daily from day 6 post-immunization for 21 days, FIG. 8
Description: C57BL/6 mice were immunized with MOG35-55 and their clinical score evaluated daily. Mice were treated daily with compound (III) (10 mg/kg) on day 6 post-immunization and the 21 following days. […] Values are expressed as means±SEM for 10 animals per group.
C57BL/6 mice were immunized with MOG35-55 and their clinical score evaluated daily. Mice were treated daily with compound (XII) (5 mg/kg) on day 6 post-immunization and the 21 following days. […] Values are expressed as means±SEM for 6 animals per group.
EAE was induced in female C57BL/6 mice at 6-8 weeks of age by subcutaneous immunization with myelin oligodendrocyte glycoprotein polypeptide (MOG35-55) (300 μg) and 200 μg of Mycobacterium tuberculosis (H37Ra Difco, Franklin Lakes, N.J., USA) in a 1:1 mix with […] Freund's adjuvant (CFA, Sigma-Aldrich, Madrid, Spain). On the same day and 2 days later, mice were injected intraperitoneally (ip) with 200 ng of pertussis toxin (Sigma-Aldrich, Madrid, Spain) in 0.1 ml PBS. […] Treatment started at day 6 post-immunization (p.i.) and consisted in daily injections of compounds III (FIG. 6) and XII (FIG. 8) at the indicated doses or of the vehicle alone (DMSO/PBS) for the following 21 days. The mice were examined daily for clinical signs of EAE and disease scores were measured as follows: 0, no disease; 1, limp tail; 2, limp tail and hind limb weakness; 3, hind limb paralysis; 4, hind limb and front limb paralysis; 5, moribund and death. All animals were sacrificed 28 days (p.i.) for further analysis. Once sacrificed, animals were dissected and their spinal cords were rapidly removed and quickly frozen in RNAlater (Sigma-Aldric, Germany).

[3] = test system: COX-2, iNOS, TNFα and IL-6; assay: 3NP model, inflammatory marker mRNAs in the striatum (real-time PCR); assay type: in vivo, C57BL/6 mice; settings: 3NP-treated mice, 10 mg/kg, FIG. 10 and FIG. 11
Description: Gene expression of inflammatory markers including COX-2, TNFα, IL-6 and iNOS, was down regulated in 3NP+compound III (10 mg/kg) treated mice compared with 3NP+Vehicle mice. Expression levels were calculated using the 2^−ΔΔct method. Values are expressed as means±SEM for 6 animals per group.
Gene expression of inflammatory markers including COX-2, TNFα, IL-6 and iNOS, was down regulated in 3NP+XII (10 mg/kg) treated mice compared with 3NP+Vehicle mice. Expression levels were calculated using the 2^−ΔΔct method. Values are expressed as means±SEM for 6 animals per group.
Lesions of the striatum were induced with 3-NP in adult (16 week old; 30 g) male C57BL/6 mice (Harlan Ibérica, Barcelona, Spain). […] The right hemisphere was used to dissect the striatum, which was quickly frozen in RNAlater (Sigma-Aldrich, Germany) to analyzed inflammatory markers were by Real Time PCR. […] We evaluated the general locomotor activity, the hindlimb clasping and dystonia, and the truncal dystonia. […]
Total RNA was isolated from striata (3NP model) or spinal cord (EAE model) using RNeasy Lipid Tissue Mini Kit (Qiagen, GmbH). The total amount of RNA extracted was quantitated by spectrometry at 260 nm and its purity from the ratio between the absorbance values at 260 and 280 nm. […] Expression levels were calculated using the 2^−ΔΔct method.

[4] = test system: striatal neurons, astrocytes and microglia; assay: 3NP model, immunohistochemistry of striatum (NeuN, GFAP, Iba-1); assay type: in vivo, C57BL/6 mice; settings: 3NP-lesioned mice, 10 mg/kg
Description: NeuN (neuronal marker), GFAP (astrocytes marker), and Ibal (microglia marker) were detected by immunostaining in the coronal sections of striatum of mice treated with vehicle, 3NP+ vehicle, 3NP+compoundXII (10 mg/kg) and XII (10 mg/kg). Quantification of NeuN (A), GFAP (B) and Ibal (C) positive cells in the mouse striatum. Total average number of neurons, astrocytes and microglia is shown. Values are expressed as means±SEM for 6 animals per group.
as §1, with “investigation. […]” for “investigation.”

[5] = text refers to FIG. 1 and FIG. 2

Structure (SMILES)	protection from glutamate-induced cytotoxicity (cell viability, MTT) (N2a cells)	PPARg activation (fold) compared with CBG-Q (PPARg [1])	PPARg activation (fold) compared with CBG-Q (PPARg [2])	further results
CCCCCC1=C(C(=O)OC)C(=O)C(C/C=C(\C)CCC=C(C)C)=C(O)C1=O [Compound II, 6-(3,7-dimethyl-octa-2,6-dienyl)-5-hydroxy-3-pentyl-2-metoxycarbonil-[1,4]benzoquinone]	protect neuronal cells from glutamate-induced apoptosis	higher efficiency than CBG-Q	higher efficiency than CBG-Q	increase of PPARg activity (PPARg [1]; [5]): ≤ 12 times; potency to activate PPARg compared with CBG-Q (PPARg [1]; concentrations of 1 to 25 μM, text refers to FIG. 1 and FIG. 2): significantly more potent than compound CBG-Q
CCCCCNC1=C(CCCCC)C(=O)C(O)=C(C/C=C(\C)CCC=C(C)C)C1=O [Compound IV, 6-(3,7-dimethyl-octa-2,6-dienyl)-5-hydroxy-3-pentyl-2-pentylamino-[1,4]benzoquinone]	protect neuronal cells from glutamate-induced apoptosis	higher efficiency than CBG-Q	higher efficiency than CBG-Q	PPARg transactivation (luciferase activity, fold induction over untreated cells) (PPARg [1]; [5]): most active compounds
CCCCCC1=C(NCC(C)C)C(=O)C(C/C=C(\C)CCC=C(C)C)=C(O)C1=O [Compound V, 6-(3,7-dimethyl-octa-2,6-dienyl)-5-hydroxy-3-pentyl-2-isobutylamino [1,4]benzoquinone]	protect neuronal cells from glutamate-induced apoptosis	higher efficiency than CBG-Q	higher efficiency than CBG-Q	PPARg transactivation (luciferase activity, fold induction over untreated cells) (PPARg [1]; [5]): most active compounds
CCCCCC1=C(NC)C(=O)C(C/C=C(\C)CCC=C(C)C)=C(O)C1=O [Compound VII, 6-(3,7-dimethyl-octa-2,6-dienyl)-5-hydroxy-3-pentyl-2-methylamino-[1,4]benzoquinone]	–	higher efficiency than CBG-Q	–	–
CCCCCC1=C(NC(C)C)C(=O)C(C/C=C(\C)CCC=C(C)C)=C(O)C1=O [Compound VIII, 6-(3,7-imethyl-octa-2,6-dienyl)-5-hydroxy-3-pentyl-2-isopropylamino-[1,4]benzoquinone]	–	higher efficiency than CBG-Q	–	–
CCCCCC1=C(C2=C(CCCCC)C(=O)C(O)=C(C/C=C(\C)CCC=C(C)C)C2=O)C(=O)C(C/C=C(\C)CCC=C(C)C)=C(O)C1=O [Compound XII, 3,3′-bis((E)-3,7-dimethylocta-2,6-dienyl)-4,4′-dihydroxy-6,6′-dipentyl-1,1′-bi(cyclohexa-3,6-diene)-2,2′,5,5′-tetraone]	protect neuronal cells from glutamate-induced apoptosis	–	–	clinical symptoms induced by 3-NP intoxication (hind limb clasping, locomotor activity, hind limb dystonia, truncal dystonia) (3NP-lesioned mice): clearly alleviates such symptomatology; clinical symptoms in EAE mice (EAE mice): alleviated the clinical symptoms in EAE mice to the same extent than compound III; up-regulation of pro-inflammatory markers COX-2, iNOS, TNFα and IL-6 in the striatum [3]: attenuated the up-regulation; striatal neurons, NeuN staining ([4]; FIG. 12A): preservation of striatal neurons; GFAP+ cells (astrocytes) in striatum ([4]; FIG. 12B): counteracted the lost of GFAP^+ cells; reactive microgliosis (Iba-1+ cells) in striatum ([4]; FIG. 12C): prevented the induction of reactive microgliosis
CN(CCOc1ccc(CC2SC(=O)NC2=O)cc1)c1ccccn1 (centres unmarked) [Rosiglitazone, reference compound]	–	–	–	increase of PPARg activity (PPARg [1]; [5]): more than 100 times
